Assay in all cases: NCI tumour cell line growth inhibition, 48 h
The subject of assay [1] is KM12 colon.
The subject of assay [2] is M14 melanoma.
Assay [3] concerns MDA-MB-435.
In assay [4] the test system is MOLT-4 leukemia.
Assay [5] relates to NCI-H23 lung.
Assay [6] concerns OVCAR-4 ovarian.
The subject of assay [7] is OVCAR-5 ovarian.
The test system of assay [8] is OVCAR-8 ovarian.
The test system of assay [9] is SK-MEL-28 melanoma.
The test system of assay [10] is SW-620 colon.

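Following 48 hours of exposure in 96-well plates, responses at five concentrations were used to interpolate endpoints linearly. TGI is the concentration that stops growth completely.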

As for `COc1cc(OC)c2c(c1)OC(c1cccnc1)C(c1ccccc1)C2=O` (stereo not given), the TGI in [1], in [2], in assay [3], in assay [4], in [5] and in assay [6] was > 100 µM each time. Also, the TGI in assay [7], in assay [8], in assay [9] and in assay [10] was > 100 µM in each case.

Turning to `N/C1=C/C(=O)NC(=O)c2c(c3ccccc3oc2=O)C1`, the TGI in [1], in [2], in assay [3], in assay [4], in [5] and in [6] was > 100 µM each time. The TGI in [7], in assay [8], in assay [9] and in [10] was > 100 µM each time.

Take `CC(=O)OCC1OC(n2c(Br)nc3c2c(=O)n(C)c(=O)n3C)C(OC(C)=O)C1OC(C)=O` (stereo not given): the TGI in [1] was > 100 µM; in assay [2], > 100 µM; in assay [3], > 100 µM; in assay [4] it was > 100 µM; in [5], > 100 µM; in [6], 83.6 µM. Further, the TGI in assay [7], in assay [8], in assay [9] and in assay [10] was > 100 µM each time.

`COc1ccc(C2C(=O)c3c(OC)cc(OC)cc3OC2c2cccnc2)cc1` (stereo not given): the TGI in [1], in [2], in [3], in assay [4], in assay [5] and in assay [6] was > 100 µM throughout. In addition, the TGI in assay [7], in assay [8], in assay [9] and in [10] was > 100 µM throughout.

For `CCCCCCCCCCCCCCCCNc1ccn(C2CC(O)C(COC(c3ccccc3)(c3ccccc3)c3ccc(OC)cc3)O2)c(=O)n1` (stereo not given), the TGI in [1], in assay [2], in [3], in assay [4], in assay [5] and in assay [6] was > 100 µM throughout. Also, the TGI in assay [7], in assay [8], in [9] and in assay [10] was > 100 µM each time.

For the compound `c1ccc2c(c1)cc1n2CCc2c-1[nH]c1ccccc21`, the TGI in assay [1], in assay [2], in [3], in assay [4], in assay [5] and in assay [6] was > 10 µM each time. Besides, the TGI in [7], in assay [8], in [9] and in assay [10] was > 10 µM in each case.

Turning to `O=C1C(c2c(O)[nH]c3ccc(Br)cc23)=Nc2ccc(Br)cc21`, the TGI in [1] was > 100 µM; in assay [2], > 100 µM; in [3], > 100 µM; in assay [4] it was > 100 µM; in assay [5], 88 µM; in [6], > 100 µM. For the same compound, the TGI is > 100 µM in assay [7], 81.3 µM in [8], > 100 µM in assay [9] and > 100 µM in assay [10].

Regarding `O=C(Cn1c(C(=O)c2ccccc2)nc2ccccc21)c1ccccc1`, the TGI in assay [1], in assay [2], in assay [3], in [4], in assay [5] and in assay [6] was > 100 µM each time. Also, the TGI in [7], in assay [8], in assay [9] and in assay [10] was > 100 µM in each case.

As to `O=c1c(Cc2ccc(Cl)cc2)nnc2sc(-c3ccc(-c4ccc(Cl)cc4Cl)o3)nn12`, the TGI in assay [1], in assay [2], in assay [3], in assay [4], in [5] and in assay [6] was > 100 µM in each case. Also, the TGI in assay [7], in assay [8], in assay [9] and in [10] was > 100 µM in each case.

For `CCN1CCC(CNC(=O)c2ccc(N)cc2)N1CC` (stereo not given), the TGI in assay [1], in assay [2], in assay [3], in [4], in [5] and in assay [6] was > 100 µM each time. For the same compound, the TGI in [7], in assay [8], in assay [9] and in [10] was > 100 µM throughout.

Consider `C/C(=C/CC[C@]1(CO)CC[C@]2(C)[C@H](CC[C@@H]3[C@@]4(C)CC[C@H](OC5OC(CO)C(O)C(O)C5OC5OC(CO)C(O)C(O)C5O)C(C)(C)[C@@H]4CC[C@]32C)[C@H]1O)CO` (stereo not given in full), for which the TGI in [1], in assay [2], in [3], in assay [4], in [5] and in assay [6] was > 100 µM each time. The TGI in [7], in [8], in [9] and in [10] was > 100 µM throughout.

For the compound `COC(=O)Nc1nc2ccc(S(=O)(=O)N3CCOCC3)cc2[nH]1`, the TGI was > 100 µM in [1]; > 100 µM in assay [2]; 89.3 µM in assay [3]; > 100 µM in [4]; > 100 µM in [5]; > 100 µM in assay [6]. Besides, the TGI in assay [7], in assay [8], in assay [9] and in assay [10] was > 100 µM in each case.

Consider `CC(C)=CC(=O)c1[nH]c2ccccc2c1CC(=O)NCCc1cncn1C`, for which the TGI in assay [1], in assay [2], in assay [3], in assay [4], in assay [5] and in assay [6] was > 100 µM in each case. In addition, the TGI in assay [7], in [8], in assay [9] and in [10] was > 100 µM in each case.
